Assay results: paper PMC12621189, “Optimization of Selective and CNS Penetrant Alkyne-Based TREK Inhibitors: The Discovery and Characterization of ONO-9517601 (VU6022856) and ONO-7927846 (VU6024391)” (Journal of Medicinal Chemistry, 2025)

Assays:
[1] = design: method as in earlier work; conditions: ref 24 (Tanaka et al., ACS Med. Chem. Lett. 2025); cited from earlier work
[2] = design: method as in earlier work; conditions: ref 24 (Tanaka et al., ACS Med. Chem. Lett. 2025); cited from earlier work; remark: listed apart in the source
[3] = design: method as in earlier work; conditions: ref 24 (Tanaka et al., ACS Med. Chem. Lett. 2025); cited from earlier work; remark: listed apart in the source
[4] = design: method as in earlier work; conditions: ref 24 (Tanaka et al., ACS Med. Chem. Lett. 2025); cited from earlier work; remark: listed apart in the source
MK-801 challenged mouse = system: MK-801 challenged mouse; design: method as in earlier work; conditions: IP, ref 24 (Tanaka et al., ACS Med. Chem. Lett. 2025); cited from earlier work
[5] = Liver microsome intrinsic clearance, human; assay type: in vitro ADME; conditions: pH 7.4; human liver microsomes, predicted intrinsic clearance; read-out: LMS CLINT human
Method: (§1) were incubated in 100 mM potassium phosphate pH 7.4 buffer with 3 mM MgCl2 at 37 °C with constant shaking. After a 5 min preincubation, the reaction was initiated by the addition of NADPH (1 mM). At selected time intervals (0, 3, 7, 15, 25, and 45 min), aliquots were taken and subsequently placed into a 96-well plate containing cold acetonitrile with internal standard (50 ng/mL carbamazepine). Plates were then centrifuged at 3000 rcf (4 °C) for 10 min, and the supernatant was transferred to a separate 96-well plate and diluted 1:1 with water for LC/MS/MS analysis. The in vitro half-life ( 1/2, min, Eq. 1), intrinsic clearance (CLint, mL/min/kg, Eq. 2), and subsequent predicted hepatic clearance (CLhep, mL/min/kg, Eq. 3) was determined employing the […]
(§2) where k represents the slope from linear regression analysis of the natural log percent remaining of a test compound as a function of incubation time […]
(§3) (2) CLint = in vitroT x mg microsomes x gram liver x kg body wt ascale-up factors: of 20 (human) or 45 (rat) […]
(§4) where Qh (hepatic blood flow, mL/min/kg) is 21 (human) or 70 (rat).
(§5) LC/MS/MS Bioanalysis of Samples from Plasma Protein Binding and Intrinsic Clearance […]
(§6) Samples were analyzed on a Thermo Electron TSQ Quantum Ultra triple quad mass spectrometer (San Jose, CA) via electrospray ionization (ESI) with two Themo Electron Accella pumps (San Jose, CA), and a Leap Technologies CTC PAL autosampler (Carrboro, NC). Analytes were […]

[6] = Liver microsome intrinsic clearance, rat; assay type: in vitro ADME; conditions: pH 7.4; rat liver microsomes, predicted intrinsic clearance; read-out: LMS CLINT rat
Method: as §1, §2, §3, §4, §5, §6

[7] = Liver microsome intrinsic clearance, mouse; assay type: in vitro ADME; conditions: mouse liver microsomes, predicted intrinsic clearance; read-out: LMS CLINT mouse
[8] = Plasma protein binding, human (equilibrium dialysis); assay type: in vitro ADME; conditions: pH 7.4, read-out: PPB human (converted)
Method: (§7) Plasma protein binding and Brain homogenate binding: Determination of fraction unbound (f u) in plasma was conducted in vitro via equilibrium dialysis using HTDialysis (HTD) membrane plates. The top half of the plate was filled with 100 uL of Dubelco’s Phosphate Buffered Saline, pH 7.4 (DPBS). Compounds were diluted into plasma from each species (5 µM final concentration), which was aliquoted in triplicate to the ‘bottom half’ of the prepared HTD plate wells. The HTD plate was sealed and incubated for 6 hours at 37 °C. Following incubation, each well (both top and bottom halves) were transferred (20 µL) to the corresponding wells of a 96-shallow-well (V-bottom) plate. The daughter plates were then matrix-matched (DPBS side wells received equal volume of plasma, and plasma side wells received equal volume of DPBS), and extraction solution (120 µL; acetonitrile containing 50 nM carbamazepine as IS) was added to all wells of both daughter plates to precipitate protein and extract test article. The plates were then sealed and centrifuged (3500 rcf) for 10 minutes at ambient temperature. Supernatant (60 µL) from each well of the daughter plates was then transferred to the corresponding wells of new daughter plates (96-shallow-well, V bottom) containing water (Milli-Q, 60 µL/well), and the plates were sealed in preparation for LC-MS/MS analysis (see LC-MS/MS analysis method below).
(§8) The unbound fraction (f u) was calculated following the equation below, and mean values for each species were calculated from 3 replicates. […]
(§9) Fraction unbound for both plasma and brain samples was determined using Equation 4.
(§10) Equation 4 Determination of fraction unbound in plasma. […]

[9] = Plasma protein binding, mouse; assay type: in vitro ADME; conditions: mouse, plasma, pH 7.4, mouse plasma, bound; read-out: PPB mouse (converted)
Method: as §7, §8, §9, §10

human TREK-1 (hTREK-1) = target: T1, human TREK-1 (hTREK-1) (Homo sapiens, UniProt O95069); experiment: TREK-1 thallium flux assay (CHO-K1 cells stably expressing hTREK-1); assay type: cell-based; conditions: human TREK-1, thallium flux; read-out: h TREK-1 Tl+ IC50
T1 construct: expressed in transfected cells
T1 sequence (O95069 1-426): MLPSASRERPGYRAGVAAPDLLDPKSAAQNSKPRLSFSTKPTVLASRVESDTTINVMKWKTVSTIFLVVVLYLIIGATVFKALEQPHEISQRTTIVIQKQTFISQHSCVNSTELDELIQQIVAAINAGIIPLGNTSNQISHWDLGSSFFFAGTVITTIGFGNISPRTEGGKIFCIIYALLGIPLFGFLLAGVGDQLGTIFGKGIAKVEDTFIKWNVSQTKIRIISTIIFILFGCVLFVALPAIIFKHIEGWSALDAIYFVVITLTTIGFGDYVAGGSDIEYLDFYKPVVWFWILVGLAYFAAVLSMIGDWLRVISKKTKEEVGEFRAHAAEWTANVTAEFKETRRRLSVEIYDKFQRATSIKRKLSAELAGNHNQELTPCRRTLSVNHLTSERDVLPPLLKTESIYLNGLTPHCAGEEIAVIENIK
Method in brief: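 Cells loaded with FluxOR dye were preincubated 10 min with test compound in 0.3% DMSO, then given thallium stimulus buffer. ΔRatio was fluorescence 25 s after thallium over pre-thallium baseline; % inhibition was normalised between vehicle and 10 μM reference blocker, and IC50 was fitted from concentration–response.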

[10] = Plasma protein binding, rat; assay type: in vitro ADME; conditions: rat, plasma, pH 7.4, rat plasma, bound; read-out: PPB rat (converted)
Method: as §7, §8, §9, §10

[11] = Rat in vivo PK (plasma clearance) in SAR tables; conditions: read-out: Rat CLp
[12] = Rat brain to plasma ratio (Kp, Kp,uu); assay type: in vivo; conditions: male, Sprague Dawley, brain and plasma, intravenous, 0.2 mg/kg; rat brain:plasma
Method: Determination of brain to plasma ratio:
All animal study procedures were approved by the Institutional Animal Care and Use Committee and were conducted in accordance with the National Institutes of Health regulations of animal care covered in Principles of Laboratory Animal Care (National Institutes of Health). All rats were fasted overnight prior to testing.
For determination of the brain over plasma ratio (Kp), compounds were formulated in 8% ethanol, 32% PEG400 and 60% DMSO (v/v/v) and administered as a single 0.2 mg/kg IV dose (1 mL/kg) to male, Sprague Dawley rats (n = 1) via injection into a surgically-implanted jugular vein catheter. At 15 min post dosing, blood sample was collected into chilled, K2EDTA anticoagulant-fortified tube and immediately placed on wet ice. The blood sample was then centrifuged (1700 rcf, 5 minutes, 4 °C) to obtain plasma sample. At the same post-administration time point, whole brain sample was obtained by rapid dissection, rinsed with PBS, and immediately frozen in individual tissue collection box (dry ice). All brain and plasma samples were stored at -80 °C until […]
Sample Analysis: Concentrations in plasma and brain homogenates were quantified by liquid chromatography tandem mass spectrometry (LC-MS/MS). Whole brains were homogenized in 3 mL of 70:30 IPA:water in a mini bead beater for 3 min, and centrifuged at 3,500 g for 5 min. 5 uL of the supernatant was diluted in 15 uL of blank plasma for quantification of the analytes. Plasma samples were centrifuged at 3,500 g for 5 min. A standard curve was generated by diluting the analytes DMSO stocks with blank plasma to obtain a final concentration of 10,000 ng/ml followed by a serial dilution down to 0.5 ng/ml. Quality controls were generated by a serial dilution of the 5,000 ng/ml standard curve solution in blank plasma to obtain 3 concentrations of 500, 50, and 5 ng/ml. 20 uL of brain diluted in plasma, plasma, blank plasma, standard curve and QC samples were loaded in a V-bottom 96-well plate. 120 uL of acetonitrile containing 0.05 uM carbamazepine (internal standard) was added to each well and the plate was centrifuged at 3,500 g for 5 min. 60 uL of the supernatant of each well (protein free) was transferred to a new 96-well plate containing 60 uL of water. The plates were sealed for analysis by LC-MS/MS.
Plasma and brain tissue samples originating from in vivo studies were analyzed by electrospray ionization using an AB Sciex Q-TRAP 5500 (Foster City, CA) that was coupled to a Shimadzu LC-20AD pump (Columbia, MD) and a Leap Technologies CTC PAL auto-sampler (Carrboro, NC). Analytes were separated by gradient elution using a C18 column (3 x 50 mm, 3 mm; Fortis Technologies Ltd, Cheshire, UK) that was thermostated at 40 °C. HPLC mobile phase A was 0.1% formic acid in water (pH unadjusted); mobile phase B was 0.1% formic acid in acetonitrile (pH […]
min, with an isocratic hold for 0.5 min, before transitioning to 10% B over 0.05 min. The column was re-equilibrated (1 min) before the next sample injection. The total run time was 2.55 min, and the HPLC flow rate was 0.5 ml/min. The source temperature was set at 500 °C, and mass spectral analyses were performed using a Turbo-Ion spray source in positive ionization mode (5.0-kV spray voltage) and using multiple-reaction monitoring of transitions specific for the analytes. All data were analyzed using AB Sciex Analyst 1.5.1 software.
Brain plasma concentration ratio (Kp) was calculated by dividing brain concentration by plasma concentration for each animal. Unbound brain to unbound plasma concentration ratio (Kp,uu) is calculated using the following formula: Kp,uu = (Brain ng/g x brain fu)/(plasma ng/ml x plasma fu).
In-vitro determination of blood-brain barrier penetration potential
Blood-brain barrier penetration was determined using MDR1-MDCK cell monolayers by Absorption Systems, following their protocol. In short, compounds were incubated at […] final concentration on one side of the cell monolayer for 2 hours. […]

Structure (SMILES) | ChromatoLogD [1] | aqueous solubility [2] [µM] | brain homogenate binding rat [3] [%] | brain homogenate binding mouse [4] [%] | MED, MK-801 mouse NOR (MK-801 challenged mouse) [mg/kg] | CLint scaled at 1 µM [5] [mL/min/kg] | CLint scaled at 1 µM [6] [mL/min/kg] | CLint scaled [7] [mL/min/kg] | fraction unbound at 6 h, 5 µM [8] | fraction unbound at 6 h, 5 µM [9] | IC50 (human TREK-1 (hTREK-1)) [nM] | fraction unbound at 6 h, 5 µM [10] | clearance [11] [mL/min/kg] | Kp at 15 min [12]
Cc1cc(C#Cc2ccc(F)cc2)cnc1NC(=O)c1cc(NC(=O)OC(C)(C)C)ccc1Cl [Compound 5] | 5.16 | < 5 | > 99.9 | 99.4 | 10 | – | – | – | – | – | – | – | – | –
CC(=O)N1CC(F)(Cn2ncc(Cl)c2C(=O)Nc2ncc(C#Cc3ccccc3)cc2C)C1 [Compound 15e, 1-((1-Acetyl-3-fluoroazetidin-3-yl)methyl)-4-chloro-N-(3-methyl-5-(phenylethynyl)pyridin-2-yl)-1H-pyrazole-5-carboxamide] | – | – | – | – | – | 16 | 72 | 340 | 0.039 | 0.022 | – | – | – | –
CC(=O)N[C@H]1CC[C@@H](n2ncc(Cl)c2C(=O)Nc2ncc(C#Cc3ccccc3)cc2C)CC1 [Compound 15f, 1-(cis-4-Acetamidocyclohexyl)-4-chloro-N-(3-methyl-5-(phenylethynyl)pyridin-2-yl)-1H-pyrazole-5-carboxamide] | – | – | – | – | – | – | – | – | 0.012 | 0.008 | 130 | 0.016 | 27.8 | 0.97
